Columns and labels:
[1] = target: T1, human p70S6 kinase (p70S6K, kinase domain residues 1-421, T412E mutation) (Homo sapiens, UniProt P23443, T412E); assay: p70S6 kinase assay, Luciferase-Coupled Chemiluminescent Kinase assay (LCCA); type: biochemical; conditions: 5 μM ATP, 12 nM p70S6K; read-out: p70S6K inhibition IC50
T1 construct: human p70S6 kinase domainresidues 1-421, containing a T412E mutation; made in house
Procedure: (§1) Kinase activity and compound inhibition are investigated using one or more of the three assay formats described below. The ATP concentrations for each assay are selected to be close to the Michaelis-Menten constant (KM) for each individual kinase. Dose-response experiments are performed at 10 different inhibitor concentrations in a 384-well plate format. The data are fitted to four-parameter equation (2) below; where Y is the observed signal, X is the inhibitor concentration, Min is the background signal in the absence of enzyme (0% enzyme activity), Max is the signal in the absence of inhibitor (100% enzyme activity), IC50 is the inhibitor concentration at 50% enzyme inhibition and H represents the empirical Hill's slope to measure the cooperativity. Typically H is close to unity. Y=Min+(Max−Min)/(1+(X/IC50)^H) Equation (2) p70S6 Kinase Assay
Biochemical activity of p70S6 kinase was assessed using a Luciferase-Coupled Chemiluminescent Kinase assay (LCCA) format. Kinase activity was measured as the percent ATP remaining following the kinase reaction. Remaining ATP was detected by luciferase-luciferin-coupled chemiluminescence. Specifically, the reaction was initiated by mixing test compounds, 5 μM ATP, 5 μM RRRLSSLRA peptide and 12 nM p70S6K (baculovirus expressed human p70S6 kinase domainresidues 1-421, containing a T412E mutation) in a 20 uL assay buffer (20 mM Tris-HCL pH 7.5, 10 mM MgCl2, 0.02% Triton X-100, 100 mM DTT, 2 mM MnCl2). The mixture is incubated at ambient temperature for 2 hours after which 20 μL luciferase-luciferin mix is added and the chemiluminescent signal read using a Wallac Victor^2 reader. The luciferase-luciferin mix consists of 50 mM HEPES, pH 7.8, 8.5 μg/mL oxalic acid (pH 7.8), 5 (or 50) mM DTT, 0.4% Triton X-100, 0.25 mg/mL coenzyme A, 63 uM AMP, 28 μg/mL luciferin and 40,000 units/mL luciferase.

[2] = target: T2, human Akt1 kinase (kinase domain residues R144-A480, activated with PDK1) (Homo sapiens, UniProt P31749); assay: Akt1 kinase assay, Luciferase-Coupled Chemiluminescent Kinase assay (LCCA); type: biochemical; conditions: 1 μM ATP, 1.3 nM Akt1; read-out: Akt-1 inhibition IC50
T2 construct: made in house
Procedure: as §1
Biochemical activity of Akt1 kinase was assessed using a Luciferase-Coupled Chemiluminescent Kinase assay (LCCA) format. Kinase activity was measured as the percent ATP remaining following the kinase reaction. Remaining ATP was detected by luciferase-luciferin-coupled chemiluminescence. Specifically, the reaction was initiated by mixing test compounds, 1 μM ATP, 5 μM crosstide peptide and 1.3 nM Akt1 (baculovirus expressed human Akt1 kinase domain residues R144-A480, activated with PDK1) in a 20 uL assay buffer (20 mM Tris-HCL pH 7.5, 10 mM MgCl2, 0.01% Triton X-100, 1 mM DTT, 3 mM MnCl2). The mixture is incubated at ambient temperature for 3 hours after which 20 μL luciferase-luciferin mix is added and the chemiluminescent signal read using a Wallac Victor2 reader. The luciferase-luciferin mix consists of 50 mM HEPES, pH 7.8, 8.5 μg/mL oxalic acid (pH 7.8), 5 (or 50) mM DTT, 0.4% Triton X-100, 0.25 mg/mL coenzyme A, 63 uM AMP, 28 μg/mL luciferin and 40,000 units/mL luciferase.

T2 sequence (P31749 144-480): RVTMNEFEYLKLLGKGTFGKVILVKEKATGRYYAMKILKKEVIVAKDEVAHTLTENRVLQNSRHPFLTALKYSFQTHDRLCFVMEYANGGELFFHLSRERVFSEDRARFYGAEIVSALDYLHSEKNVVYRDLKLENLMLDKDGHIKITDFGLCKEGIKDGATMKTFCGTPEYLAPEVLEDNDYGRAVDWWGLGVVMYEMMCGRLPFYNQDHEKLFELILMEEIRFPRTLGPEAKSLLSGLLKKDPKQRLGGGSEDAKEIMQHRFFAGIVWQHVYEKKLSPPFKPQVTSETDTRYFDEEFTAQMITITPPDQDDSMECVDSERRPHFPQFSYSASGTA
T1 sequence (P23443 1-421 T412E): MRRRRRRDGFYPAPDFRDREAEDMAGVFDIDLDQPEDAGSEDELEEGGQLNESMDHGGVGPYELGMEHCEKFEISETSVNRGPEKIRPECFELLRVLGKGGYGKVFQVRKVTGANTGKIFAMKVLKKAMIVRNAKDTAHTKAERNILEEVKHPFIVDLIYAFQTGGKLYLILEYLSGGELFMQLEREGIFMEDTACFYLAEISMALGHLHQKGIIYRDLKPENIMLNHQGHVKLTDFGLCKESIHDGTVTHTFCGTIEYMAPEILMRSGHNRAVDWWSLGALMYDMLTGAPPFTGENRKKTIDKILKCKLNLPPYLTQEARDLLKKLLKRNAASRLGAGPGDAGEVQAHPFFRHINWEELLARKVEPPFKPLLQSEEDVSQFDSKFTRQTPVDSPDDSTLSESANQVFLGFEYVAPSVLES

Row | Compound | IC50 [1] [nM] | IC50 [2] [nM]
1 | O=[N+]([O-])c1cc(CN2CCN(c3ncnc4[nH]nc(Br)c34)CC2)ccc1Oc1ccc(F)cc1 [Entry 65, 3-bromo-4-[4-({4-[(4-fluorophenyl)oxy]-3-nitrophenyl}methyl)piperazin-1-yl]-1H-pyrazolo[3,4-d]pyrimidine] | 500 to 2000 | > 2000
2 | CN(C)CCCOC(c1ccc(Cl)cc1)C1CCN(c2ncnc3[nH]nc(Br)c23)CC1 (centres unmarked) [Entry 3, 3-{[[1-(3-bromo-1H-pyrazolo[3,4-d]pyrimidin-4-yl)piperidin-4-yl](4-chlorophenyl)methyl]oxy}-N,N-dimethylpropan-1-amine] | < 50 | < 50
3 | CN(Cc1ccco1)C(c1ccc(F)cc1)C1CCN(c2ncnc3[nH]nc(Br)c23)CC1 (centres unmarked) [Entry 96, 1-[1-(3-bromo-1H-pyrazolo[3,4-d]pyrimidin-4-yl)piperidin-4-yl]-1-(4-fluorophenyl)-N-(furan-2-ylmethyl)-N-methylmethanamine] | 50 to 500 | 500 to 2000
4 | Fc1cc(Cl)ccc1CN1CCN(c2ncnc3[nH]nc(Br)c23)CC1 [Entry 17, 3-bromo-4-{4-[(4-chloro-2-fluorophenyl)methyl]piperazin-1-yl}-1H-pyrazolo[3,4-d]pyrimidine] | < 50 | 50 to 500
5 | CN(C)c1ccc(CN(C)C(c2ccc(F)cc2)C2CCN(c3ncnc4[nH]nc(Br)c34)CC2)cc1 (centres unmarked) [Entry 98, 4-{[{[1-(3-bromo-1H-pyrazolo[3,4-d]pyrimidin-4-yl)piperidin-4-yl](4-fluorophenyl)methyl}(methyl)amino]methyl}-N,N-dimethylaniline] | < 50 | 50 to 500
6 | OC(c1ccc(F)cc1)C1CCN(c2ncnc3[nH]nc(Br)c23)CC1 (centres unmarked) [Entry 22, [1-(3-bromo-1H-pyrazolo[3,4-d]pyrimidin-4-yl)piperidin-4-yl](4-fluorophenyl)methanol] | < 50 | 50 to 500
7 | Clc1ccc(NC2CCN(c3ncnc4[nH]nc(Br)c34)CC2)cc1 [Entry 59, 1-(3-bromo-1H-pyrazolo[3,4-d]pyrimidin-4-yl)-N-(4-chlorophenyl)piperidin-4-amine] | 50 to 500 | > 2000
8 | Brc1ccc(CN2CCN(c3ncnc4[nH]nc(Br)c34)CC2)cc1 [Entry 4, 3-bromo-4-{4-[(4-bromophenyl)methyl]piperazin-1-yl}-1H-pyrazolo[3,4-d]pyrimidine] | < 50 | 50 to 500
9 | CCN(CC)CCCN(c1ccc(Cl)cc1)C1CCN(c2ncnc3[nH]nc(Br)c23)CC1 [Entry 10, N-[1-(3-bromo-1H-pyrazolo[3,4-d]pyrimidin-4-yl)piperidin-4-yl]-N-(4-chlorophenyl)-N′,N′-diethylpropane-1,3-diamine] | < 50 | < 50
10 | CCN(CC)CCO[C@@H](c1ccc(Cl)cc1)C1CCN(c2ncnc3[nH]nc(Br)c23)CC1 [Entry 102, 2-{[(R)-[1-(3-bromo-1H-pyrazolo[3,4-d]pyrimidin-4-yl)piperidin-4-yl](4-chlorophenyl)methyl]oxy}-N,N-diethylethanamine] | < 50 | < 50
11 | OCC1CN(c2ncnc3[nH]nc(Br)c23)CCN1Cc1ccc(Cl)cc1 (centres unmarked) [Entry 5, {4-(3-bromo-1H-pyrazolo[3,4-d]pyrimidin-4-yl)-1-[(4-chlorophenyl)methyl]piperazin-2-yl}methanol] | < 50 | 50 to 500
12 | CN(C)CCNC(=O)N(c1ccc(Cl)cc1)C1CCN(c2ncnc3[nH]nc(Br)c23)CC1 [Entry 12, N-[1-(3-bromo-1H-pyrazolo[3,4-d]pyrimidin-4-yl)piperidin-4-yl]-N-(4-chlorophenyl)-N′-[2-(dimethylamino)ethyl]urea] | < 50 | < 50
13 | CCN(CC)CCCNC(=O)C1(c2ccc(Cl)cc2)CCN(c2ncnc3[nH]nc(Br)c23)CC1 [Entry 49, 1-(3-bromo-1H-pyrazolo[3,4-d]pyrimidin-4-yl)-4-(4-chlorophenyl)-N-[3-(diethylamino)propyl]piperidine-4-carboxamide] | < 50 | 500 to 2000
14 | CCN(CC)CCC(=O)N(c1ccc(Cl)cc1)C1CCN(c2ncnc3[nH]nc(Br)c23)CC1 [Entry 24, N-[1-(3-bromo-1H-pyrazolo[3,4-d]pyrimidin-4-yl)piperidin-4-yl]-N-(4-chlorophenyl)-N~3~,N~3~-diethyl-beta-alaninamide] | < 50 | < 50
15 | CN(C)CCCC(O)(c1ccc(Cl)cc1)C1CCN(c2ncnc3[nH]nc(Br)c23)CC1 (centres unmarked) [Entry 91, 1-[1-(3-bromo-1H-pyrazolo[3,4-d]pyrimidin-4-yl)piperidin-4-yl]-1-(4-chlorophenyl)-4-(dimethylamino)butan-1-ol] | < 50 | < 50
16 | Fc1cc([C@H](OCCN2CCCC2)C2CCN(c3ncnc4[nH]nc(Br)c34)CC2)ccc1Cl [Entry 100, 3-bromo-4-(4-{(R)-(4-chloro-3-fluorophenyl)[(2-pyrrolidin-1-ylethyl)oxy]methyl}piperidin-1-yl)-1H-pyrazolo[3,4-d]pyrimidine] | < 50 | < 50
17 | CCN(CC)CCN(C)C(c1ccc(Cl)cc1)C1CCN(c2ncnc3[nH]nc(Br)c23)CC1 (centres unmarked) [Entry 21, N-[[1-(3-bromo-1H-pyrazolo[3,4-d]pyrimidin-4-yl)piperidin-4-yl](4-chlorophenyl)methyl]-N′,N′-diethyl-N-methylethane-1,2-diamine] | < 50 | < 50
18 | Clc1ccc(CC2CCN(c3ncnc4[nH]nc(Br)c34)CC2)cc1Cl [Entry 40, 3-bromo-4-{4-[(3,4-dichlorophenyl)methyl]piperidin-1-yl}-1H-pyrazolo[3,4-d]pyrimidine] | < 50 | > 2000
19 | Fc1cc(CN2CCN(c3ncnc4[nH]nc(Br)c34)CC2)ccc1Cl [Entry 16, 3-bromo-4-{4-[(4-chloro-3-fluorophenyl)methyl]piperazin-1-yl}-1H-pyrazolo[3,4-d]pyrimidine] | < 50 | 50 to 500
20 | Clc1cc(CN2CCN(c3ncnc4[nH]nc(Br)c34)CC2)ccc1OCc1ccccc1 [Entry 80, 3-bromo-4-[4-({3-chloro-4-[(phenylmethyl)oxy]phenyl}methyl)piperazin-1-yl]-1H-pyrazolo[3,4-d]pyrimidine] | > 2000 | > 2000
21 | CCN(CC)CCS(=O)(=O)N(c1ccc(Cl)cc1)C1CCN(c2ncnc3[nH]nc(Br)c23)CC1 [Entry 29, N-[1-(3-bromo-1H-pyrazolo[3,4-d]pyrimidin-4-yl)piperidin-4-yl]-N-(4-chlorophenyl)-2-(diethylamino)ethanesulfonamide] | < 50 | < 50
22 | O=C(NCCCN1CCOCC1)c1ccc(CN2CCN(c3ncnc4[nH]nc(Br)c34)CC2)cc1 [Entry 81, 4-{[4-(3-bromo-1H-pyrazolo[3,4-d]pyrimidin-4-yl)piperazin-1-yl]methyl}-N-(3-morpholin-4-ylpropyl)benzamide] | > 2000 | > 2000
23 | CCN(CC)CCC(=O)NC(c1ccc(Cl)cc1)C1CCN(c2ncnc3[nH]nc(Br)c23)CC1 (stereo not drawn) [Entry 26, N-[[1-(3-bromo-1H-pyrazolo[3,4-d]pyrimidin-4-yl)piperidin-4-yl](4-chlorophenyl)methyl]-N~3~,N~3~-diethyl-beta-alaninamide] | < 50 | < 50
24 | CN(C)CCNC(=O)NC(c1ccc(Cl)cc1)C1CCN(c2ncnc3[nH]nc(Br)c23)CC1 (centres unmarked) [Entry 13, N-[[1-(3-bromo-1H-pyrazolo[3,4-d]pyrimidin-4-yl)piperidin-4-yl](4-chlorophenyl)methyl]-N′-[2-(dimethylamino)ethyl]urea] | < 50 | < 50
25 | CCN(CC)CCN(c1ccc(Cl)cc1)C1CCN(c2ncnc3[nH]nc(Br)c23)CC1 [Entry 18, N-[1-(3-bromo-1H-pyrazolo[3,4-d]pyrimidin-4-yl)piperidin-4-yl]-N-(4-chlorophenyl)-N′,N′-diethylethane-1,2-diamine] | < 50 | < 50

— US7994172B2, “[1H-pyrazolo[3, 4-D]pyrimidin-4-yl]-piperidine or -piperazine compounds as serine-theoronine kinase modulators (P70s6k, Atk1 and Atk2) for the treatment of immunological, inflammatory and proliferative diseases” (Exelixis, Inc., priority 2004, dated 2011)
